Laboratory results published in ChEMBL document CHEMBL1201862, “PubChem BioAssay data set” (2004).
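How tested: cells in 96-well plates exposed to compound for 48 hours at five concentrations. GI50: concentration for 50% inhibition of growth.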 Calls of active or inactive are those of the source. Cut-off read from the data, not from the text of the source: active = GI50 up to about 1.1 µM and inactive = higher.

Key:
Experiment in all cases: NCI tumour cell line growth inhibition, 48 h
786-0 = tested on: 786-0
A498 = tested on: A498
A549 = tested on: A549
ACHN = tested on: ACHN
BT-549 = tested on: BT-549
CAKI-1 = tested on: CAKI-1
COLO 205 = tested on: COLO 205
DU-145 = tested on: DU-145
EKVX = tested on: EKVX
HCC 2998 = tested on: HCC 2998
HCT-116 = tested on: HCT-116
HCT-15 = tested on: HCT-15
HOP-62 = tested on: HOP-62
HOP-92 = tested on: HOP-92
Hs-578T = tested on: Hs-578T
IGROV-1 = tested on: IGROV-1
K562 = tested on: K562
KM12 = tested on: KM12
LOX IMVI = tested on: LOX IMVI
M14 = tested on: M14
MCF7 = tested on: MCF7
MDA-MB-231 = tested on: MDA-MB-231
MDA-MB-435 = tested on: MDA-MB-435
MDA-N = tested on: MDA-N
Malme-3M = tested on: Malme-3M
NCI-H23 = tested on: NCI-H23
NCI-H460 = tested on: NCI-H460
NCI-H522 = tested on: NCI-H522
NCI/ADR-RES = tested on: NCI/ADR-RES
OVCAR-3 = tested on: OVCAR-3
OVCAR-4 = tested on: OVCAR-4
OVCAR-5 = tested on: OVCAR-5
OVCAR-8 = tested on: OVCAR-8
PC-3 = tested on: PC-3
RPMI-8226 = tested on: RPMI-8226
RXF 393 = tested on: RXF 393
SF-268 = tested on: SF-268
SF-295 = tested on: SF-295
SF-539 = tested on: SF-539
SK-MEL-28 = tested on: SK-MEL-28
SK-MEL-2 = tested on: SK-MEL-2
SK-MEL-5 = tested on: SK-MEL-5
SK-OV-3 = tested on: SK-OV-3
SN12C = tested on: SN12C
SNB-19 = tested on: SNB-19
SNB-75 = tested on: SNB-75
SW-620 = tested on: SW-620
T47D = tested on: T47D
TK-10 = tested on: TK-10
U-251 = tested on: U-251
UACC-257 = tested on: UACC-257
UACC-62 = tested on: UACC-62
UO-31 = tested on: UO-31
CCRF-CEM = tested on: CCRF-CEM
HL-60 = tested on: HL-60
HT-29 = tested on: HT-29
MOLT-4 = tested on: MOLT-4
NCI-H226 = tested on: NCI-H226

O=c1[nH]cc(-c2c[nH]c3ccccc23)nc1-c1c[nH]c2ccccc12 was tested, and the GI50 (786-0) was 11.3 µM (inactive), the GI50 (A498) was 14.7 µM (inactive) and the GI50 (A549) was 21 µM (inactive). For the same molecule, the GI50 (ACHN) was 11.6 µM (inactive), the GI50 (BT-549) was 15.3 µM (inactive) and the GI50 (CAKI-1) was 3.28 µM (inactive). For the same molecule, the GI50 (COLO 205) was 10.9 µM (inactive), the GI50 (DU-145) was 13.2 µM (inactive) and the GI50 (EKVX) was 12.2 µM (inactive). The GI50 (HCC 2998) was 9.57 µM (inactive), the GI50 (HCT-116) was 10.8 µM (inactive) and the GI50 (HCT-15) was 11.1 µM. The GI50 (HOP-62) was 12.5 µM (inactive), the GI50 (HOP-92) was 12.3 µM (inactive) and the GI50 (Hs-578T) was 14.2 µM (inactive). The GI50 (IGROV-1) was 2.92 µM (inactive), the GI50 (K562) was 2.96 µM (inactive) and the GI50 (KM12) was 4.95 µM (inactive). For the same molecule, the GI50 (LOX IMVI) was 11.2 µM (inactive), the GI50 (M14) was 10.7 µM (inactive) and the GI50 (MCF7) was 10.2 µM (inactive). The GI50 (MDA-MB-231) was 22.3 µM (inactive), the GI50 (MDA-MB-435) was 3.29 µM (inactive) and the GI50 (MDA-N) was 2.47 µM (inactive). For the same molecule, the GI50 (Malme-3M) was 11.2 µM (inactive), the GI50 (NCI-H23) was 14.7 µM (inactive) and the GI50 (NCI-H460) was 13.8 µM (inactive). For the same molecule, the GI50 (NCI-H522) was 6.79 µM (inactive), the GI50 (NCI/ADR-RES) was 16.4 µM (inactive) and the GI50 (OVCAR-3) was 9.51 µM (inactive). The GI50 (OVCAR-4) was 6.58 µM (inactive), the GI50 (OVCAR-5) was 11.2 µM (inactive) and the GI50 (OVCAR-8) was 12.8 µM (inactive). The GI50 (PC-3) was 14.5 µM (inactive), the GI50 (RPMI-8226) was 9.73 µM (inactive) and the GI50 (RXF 393) was 2.74 µM (inactive). The GI50 (SF-268) was 13 µM (inactive), the GI50 (SF-295) was 4.53 µM (inactive) and the GI50 (SF-539) was 8.63 µM (inactive). For the same molecule, the GI50 (SK-MEL-28) was 15.2 µM (inactive), the GI50 (SK-MEL-2) was 14.8 µM (inactive) and the GI50 (SK-MEL-5) was 13.4 µM (inactive). The GI50 (SK-OV-3) was 13.4 µM (inactive), the GI50 (SN12C) was 13.2 µM (inactive) and the GI50 (SNB-19) was 15.8 µM (inactive). For the same molecule, the GI50 (SNB-75) was 10.3 µM (inactive), the GI50 (SW-620) was 4.9 µM (inactive) and the GI50 (T47D) was 8.55 µM (inactive). For the same molecule, the GI50 (TK-10) was 11.7 µM (inactive), the GI50 (U-251) was 21 µM (inactive) and the GI50 (UACC-257) was 13 µM (inactive). The GI50 (UACC-62) was 11.1 µM (inactive) and the GI50 (UO-31) was 8.51 µM (inactive).
For C1=C2C3=[N+](CCCC3)CC2Cc2sccc21 (centres undefined), the GI50 (786-0) was > 100 µM (inactive), the GI50 (A498) was 47.6 µM (inactive) and the GI50 (A549) was 30 µM (inactive). For the same molecule, the GI50 (ACHN) was > 100 µM (inactive), the GI50 (BT-549) was 82.6 µM (inactive) and the GI50 (CAKI-1) was > 100 µM (inactive). For the same molecule, the GI50 (CCRF-CEM) was > 100 µM (inactive), the GI50 (COLO 205) was 67.1 µM (inactive) and the GI50 (DU-145) was > 100 µM (inactive). For the same molecule, the GI50 (EKVX) was 42.7 µM (inactive), the GI50 (HCT-116) was > 100 µM (inactive) and the GI50 (HCT-15) was greater than 100 µM. The GI50 (HL-60) was > 100 µM (inactive), the GI50 (HOP-62) was 81.7 µM (inactive) and the GI50 (HOP-92) was 99.8 µM (inactive). For the same molecule, the GI50 (HT-29) was 53.2 µM (inactive), the GI50 (Hs-578T) was > 100 µM (inactive) and the GI50 (IGROV-1) was > 100 µM (inactive). For the same molecule, the GI50 (K562) was > 100 µM (inactive), the GI50 (KM12) was 45.6 µM (inactive) and the GI50 (LOX IMVI) was > 100 µM (inactive). The GI50 (M14) was > 100 µM (inactive), the GI50 (MCF7) was > 100 µM (inactive) and the GI50 (MDA-MB-231) was > 100 µM (inactive). For the same molecule, the GI50 (MDA-MB-435) was > 100 µM (inactive), the GI50 (MDA-N) was > 100 µM (inactive) and the GI50 (MOLT-4) was > 100 µM (inactive). The GI50 (Malme-3M) was 49.1 µM (inactive), the GI50 (NCI-H226) was > 100 µM (inactive) and the GI50 (NCI-H23) was > 100 µM (inactive). The GI50 (NCI-H460) was 52.7 µM (inactive), the GI50 (NCI-H522) was 53 µM (inactive) and the GI50 (NCI/ADR-RES) was > 100 µM (inactive). The GI50 (OVCAR-3) was 64.4 µM (inactive), the GI50 (OVCAR-4) was 42.5 µM (inactive) and the GI50 (OVCAR-5) was > 100 µM (inactive). For the same molecule, the GI50 (OVCAR-8) was > 100 µM (inactive), the GI50 (PC-3) was 45.6 µM (inactive) and the GI50 (RXF 393) was > 100 µM (inactive). For the same molecule, the GI50 (SF-268) was > 100 µM (inactive), the GI50 (SF-295) was 66.5 µM (inactive) and the GI50 (SK-MEL-28) was > 100 µM (inactive). The GI50 (SK-MEL-2) was > 100 µM (inactive), the GI50 (SK-MEL-5) was 57.7 µM (inactive) and the GI50 (SK-OV-3) was > 100 µM (inactive). The GI50 (SN12C) was 92.7 µM (inactive), the GI50 (SNB-19) was 86.9 µM (inactive) and the GI50 (SNB-75) was > 100 µM (inactive). The GI50 (SW-620) was > 100 µM (inactive), the GI50 (T47D) was 74.8 µM (inactive) and the GI50 (TK-10) was > 100 µM (inactive). For the same molecule, the GI50 (U-251) was 29.4 µM (inactive), the GI50 (UACC-257) was 33.3 µM (inactive) and the GI50 (UACC-62) was > 100 µM (inactive). For the same molecule, the GI50 (UO-31) was > 100 µM (inactive).
With COC(=O)CC(c1ccccc1)C(C#N)(OP1(=O)OC(c2ccccc2)C(C)N1C)c1ccccc1 (centres undefined) the GI50 (786-0) was 83.4 µM (inactive), the GI50 (A498) was 39.4 µM (inactive) and the GI50 (A549) was 35.2 µM (inactive). The GI50 (ACHN) was 39.4 µM (inactive), the GI50 (BT-549) was 64.4 µM (inactive) and the GI50 (CAKI-1) was 72.1 µM (inactive). For the same molecule, the GI50 (CCRF-CEM) was 37.8 µM (inactive), the GI50 (COLO 205) was 21.3 µM (inactive) and the GI50 (DU-145) was > 100 µM (inactive). For the same molecule, the GI50 (EKVX) was 77.1 µM (inactive), the GI50 (HCC 2998) was > 100 µM (inactive) and the GI50 (HCT-116) was 48.4 µM (inactive). The GI50 (HCT-15) was 41.2 µM, the GI50 (HL-60) was 26.2 µM (inactive) and the GI50 (HOP-62) was > 100 µM (inactive). The GI50 (HOP-92) was 94 µM (inactive), the GI50 (HT-29) was 46.8 µM (inactive) and the GI50 (Hs-578T) was > 100 µM (inactive). For the same molecule, the GI50 (IGROV-1) was 71.9 µM (inactive), the GI50 (K562) was 26.2 µM (inactive) and the GI50 (KM12) was 35 µM (inactive). For the same molecule, the GI50 (LOX IMVI) was 59.3 µM (inactive), the GI50 (M14) was 60 µM (inactive) and the GI50 (MCF7) was 37.2 µM (inactive). The GI50 (MDA-MB-231) was > 100 µM (inactive), the GI50 (MDA-MB-435) was 43.4 µM (inactive) and the GI50 (MDA-N) was 54.5 µM (inactive). The GI50 (MOLT-4) was 19.5 µM (inactive), the GI50 (Malme-3M) was 56.1 µM (inactive) and the GI50 (NCI-H23) was 57.3 µM (inactive). The GI50 (NCI-H460) was 41.1 µM (inactive), the GI50 (NCI-H522) was 35 µM (inactive) and the GI50 (NCI/ADR-RES) was 50.5 µM (inactive). For the same molecule, the GI50 (OVCAR-3) was 77.1 µM (inactive), the GI50 (OVCAR-4) was 33.3 µM (inactive) and the GI50 (OVCAR-5) was > 100 µM (inactive). For the same molecule, the GI50 (OVCAR-8) was 48 µM (inactive), the GI50 (PC-3) was 35.8 µM (inactive) and the GI50 (RPMI-8226) was 24.7 µM (inactive). The GI50 (RXF 393) was > 100 µM (inactive), the GI50 (SF-268) was > 100 µM (inactive) and the GI50 (SF-295) was 71.6 µM (inactive). The GI50 (SK-MEL-28) was > 100 µM (inactive), the GI50 (SK-MEL-2) was 27.9 µM (inactive) and the GI50 (SK-MEL-5) was 19 µM (inactive). The GI50 (SK-OV-3) was > 100 µM (inactive), the GI50 (SN12C) was 30.1 µM (inactive) and the GI50 (SNB-19) was 73.5 µM (inactive). The GI50 (SNB-75) was > 100 µM (inactive), the GI50 (SW-620) was 62.1 µM (inactive) and the GI50 (T47D) was 68.2 µM (inactive). The GI50 (TK-10) was > 100 µM (inactive), the GI50 (U-251) was 54.1 µM (inactive) and the GI50 (UACC-257) was 34.9 µM (inactive). The GI50 (UACC-62) was 47.5 µM (inactive) and the GI50 (UO-31) was 11.1 µM (inactive).
